Experimental data: ChEMBL document CHEMBL5247651, “Oxadiazolopyridine Derivatives as Efficacious Mitochondrial Uncouplers in the Prevention of Diet-Induced Obesity” (J Med Chem, 2023)
In brackets after ≈: the same amount, converted by molar mass. Activity calls are given as the source filed them. The calls are words filed in the database; no cut-off is given here.

Tests used:
Mus musculus [1] = test: Anti-obesity activity in high-fat diet induced obesity C57BL/6 mouse model assessed as increase in carbon dioxide production at 130 mg/kg, po measured upto 4 hrs by indirect calorimetric analysis; type: functional, organism-based
[2] = Induction of mitochondrial uncoupling activity in rat L6 cells assessed as increase in oxygen consumption rate at 0.37 to 200 uM measured after 90 mins by agilent Seahorse XF analyzer relative to BAM15; type: functional; settings: dose 0.37-200 µM, 1.5 h
[3] = Induction of mitochondrial uncoupling activity in rat L6 cells assessed as increase in oxygen consumption rate measured after 90 mins by agilent Seahorse XF analyzer; type: functional, cell-based
[4] = Cmax in C57BL/6 mouse at 10 mg/kg, po administered via gavage measured upto 24 hrs by LC/MS-MS analysis; type: ADME, organism-based; design: dose 10 mg/kg, time < 24 hrs, route po; settings: in vivo
[5] = Cmax in Swiss albino mouse at 10 mg/kg, po administered via gavage measured upto 24 hrs by LC/MS-MS analysis; type: ADME, organism-based; design: time < 24 hrs, dose 10 mg/kg, route po; settings: in vivo
[6] = Half life in Swiss albino mouse at 10 mg/kg, po administered via gavage measured upto 24 hrs by LC/MS-MS analysis; type: ADME, organism-based; settings: in vivo
[7] = Induction of mitochondrial respiration in rat L6 cells assessed as fold increase in basal respiration upto 200 uM; type: functional
[8] = Induction of mitochondrial respiration in rat L6 cells assessed as fold increase in basal respiration at 25 uM followed by BAM15 addition; type: functional
L6 = test: Induction of mitochondrial respiration in rat L6 cells assessed as fold increase in basal respiration at 25 uM in presence of oligomycin; type: functional, cell-based
[9] = Solubility of compound at pH 7.4; type: physicochemical; settings: buffer
[10] = Apparent permeability across apical to basolateral side in human Caco-2 cells; type: ADME, cell-based
[11] = Apparent permeability across basolateral to apical side in human Caco-2 cells; type: ADME, cell-based
[12] = Observed apparent volume of distribution in C57BL/6 mouse at 1 mg/kg, iv measured upto 24 hrs by LC/MS-MS analysis; type: ADME, organism-based; settings: in vivo, read-out: Vz
[13] = Observed volume of distribution at steady state in C57BL/6 mouse at 1 mg/kg, iv measured upto 24 hrs by LC/MS-MS analysis; type: ADME, organism-based; settings: in vivo, read-out: Vdss
Mus musculus [14] = test: Anti-obesity activity in high-fat diet induced obesity C57BL/6 mouse model assessed as increase in oxygen consumption at 130 mg/kg, po measured upto 4 hrs by indirect calorimetric analysis; type: functional, organism-based
Mus musculus [15] = test: Anti-obesity activity in high-fat diet induced obesity C57BL/6 mouse model assessed as increase in energy expenditure at 130 mg/kg, po measured upto 4 hrs by indirect calorimetric analysis; type: functional, organism-based
Mus musculus [16] = test: Anti-obesity activity in high-fat diet induced obesity C57BL/6 mouse model assessed as increase in carbohydrate oxidation at 130 mg/kg, po measured upto 4 hrs by indirect calorimetric analysis; type: functional, organism-based
Mus musculus [17] = test: Anti-obesity activity in high-fat diet induced obesity C57BL/6 mouse model assessed as increase in locomotory activity at 130 mg/kg, po measured upto 4 hrs by indirect calorimetric analysis; type: functional, organism-based
Mus musculus [18] = test: Anti-obesity activity in high-sugar western diet induced obesity C57BL/6j mouse model assessed as decrease in body weight at 130 mg/kg per day, po administered for 14 days; type: functional, organism-based; settings: time 14.0 day
Mus musculus [19] = test: Anti-obesity activity in high-sugar western diet induced obesity C57BL/6j mouse model assessed as decrease in fat-free lean mass at 130 mg/kg per day, po administered measured after 2 weeks by EchoMRI analysis; type: functional; design: scale not given: the % may be the effect or the level left
Mus musculus [20] = test: Anti-obesity activity in high-sugar western diet induced obesity C57BL/6j mouse model assessed as decrease in fat-free mass body composition at 130 mg/kg per day, po administered measured after 2 weeks by EchoMRI analysis (reference value: 77%); type: functional; design: scale not given: the % may be the effect or the level left
Mus musculus [21] = test: Anti-obesity activity in high-sugar western diet induced obesity C57BL/6j mouse model assessed as decrease in glucose level AUC at 130 mg/kg per day, po administered measured after 10 days in presence of glucose by glucose tolerance test; type: functional, organism-based; settings: time 10.0 day
Mus musculus [22] = test: Anti-obesity activity in fasted C57BL/6j mouse assessed as decrease in serum glucose level at 130 mg/kg per day, po administered measured after 2 weeks; type: functional, organism-based
Mus musculus [23] = test: Anti-obesity activity in high-sugar western diet induced obesity C57BL/6j mouse model assessed as decrease in insulin level at 130 mg/kg per day, po administered measured after 2 weeks; type: functional, organism-based
[24] = Drug distribution in fasted C57BL/6j mouse brown adipose tissue at 130 mg/kg, po by LC-MS/MS analysis; type: ADME, organism-based; settings: in vivo
[25] = Drug distribution in fasted C57BL/6j mouse […] white adipose tissue at 130 mg/kg, po by LC-MS/MS analysis; type: ADME, organism-based; settings: in vivo
[26] = Drug distribution in fasted C57BL/6j mouse liver at 10 mg/kg, po measured after 2 hrs by LC-MS/MS analysis; type: ADME, organism-based; settings: in vivo
[27] = Drug distribution in fasted C57BL/6j mouse white adipose tissue at 10 mg/kg, po measured after 2 hrs by LC-MS/MS analysis; type: ADME, organism-based; settings: in vivo
[28] = Drug distribution in fasted C57BL/6j mouse brown adipose tissue at 10 mg/kg, po measured after 2 hrs by LC-MS/MS analysis; type: ADME, organism-based; settings: in vivo
Mus musculus [29] = test: Anti-obesity activity in high-sugar western diet induced obesity C57BL/6j mouse model assessed as reversal of body weight at 130 mg/kg per day, po administered via gavage daily measured after 3 weeks; type: functional, organism-based
Mus musculus [30] = test: Anti-obesity activity in high-sugar western diet induced obesity C57BL/6j mouse model assessed as reversal of fat mass gain at 130 mg/kg per day, po administered via gavage daily measured after 3 weeks; type: functional, organism-based
Mus musculus [31] = test: Anti-obesity activity in high-sugar western diet induced obesity C57BL/6j mouse model assessed as decrease in retroperitoneal fat pad weight at 130 mg/kg per day, po administered via gavage daily measured after 3 weeks; type: functional, organism-based
Mus musculus [32] = test: Anti-obesity activity in high-sugar western diet induced obesity C57BL/6j mouse model assessed as decrease in muscle weight at 130 mg/kg per day, po administered via gavage daily measured after 3 weeks; type: functional, organism-based
Mus musculus [33] = test: Anti-obesity activity in high-sugar western diet induced obesity C57BL/6j mouse model assessed as effect on fecal triglyceride level at 130 mg/kg per day, po administered via gavage daily measured after 3 weeks by colorimetric analysis; type: functional, organism-based
Mus musculus [34] = test: Anti-obesity activity in high-sugar western diet induced obesity C57BL/6j mouse model assessed as effect on free fatty acid level at 130 mg/kg per day, po administered via gavage daily measured after 3 weeks by fluorometric analysis; type: functional, organism-based
Mus musculus [35] = test: Anti-obesity activity in high-sugar western diet induced obesity C57BL/6j mouse model assessed as decrease in rectal temperature at 130 mg/kg per day, po administered via gavage daily measured after 1 hr at day 11; type: functional, organism-based
Mus musculus [36] = test: Anti-obesity activity in C57BL/6j mouse assessed as increase in glucose level at 130 mg/kg per day, po administered via gavage daily measured after 3 weeks by glucose tolerance test; type: functional, organism-based
Mus musculus [37] = test: Anti-obesity activity in C57BL/6j mouse assessed as effect on plasma free fatty acid level at 130 mg/kg per day, po administered via gavage daily measured after 3 weeks; type: functional, organism-based

SMILES: Oc1nc2nonc2cc1Nc1c(F)c(F)c(F)c(F)c1F
- Activity (Mus musculus [1]): Active
- Activity [2]: 48%
- EC50 [3]: 17.1 µM
- pEC50 [3]: 4.8
- Cmax [4]: 87 µM
- Cmax [5]: 57 µM
- t1/2 [6]: 4.4 h
- fold change (FC) [7]: 2
- fold change (FC) [8]: 3
- Activity (L6): Active
- solubility [9]: 18.6 µM (≈ 5.92 µg/mL)
- Papp A→B [10]: 12.4 ×10⁻⁶ cm/s
- Papp B→A [11]: 1.6 ×10⁻⁶ cm/s
- Vd [12]: 0.07 L/kg
- Vd [13]: 0.06 L/kg
- Activity (Mus musculus [14]): Active
- Activity (Mus musculus [15]): Active
- Activity (Mus musculus [16]): Active
- Activity (Mus musculus [17]): inactive
- Activity (Mus musculus [18]): Active
- Activity (Mus musculus [19]): 4%
- Activity (Mus musculus [20]): 84%
- Activity (Mus musculus [21]): Active
- Activity (Mus musculus [22]): Active
- Activity (Mus musculus [23]): Active
- Drug uptake [24]: Active
- Drug uptake [25]: Active
- Drug uptake [26]: Active
- Drug uptake [27]: Active
- Drug uptake [28]: Active
- Activity (Mus musculus [29]): Active
- Activity (Mus musculus [30]): Active
- Activity (Mus musculus [31]): inactive
- Activity (Mus musculus [32]): inactive
- Activity (Mus musculus [33]): inactive
- Activity (Mus musculus [34]): inactive
- Activity (Mus musculus [35]): Active
- Activity (Mus musculus [36]): inactive
- Activity (Mus musculus [37]): inactive
